Data published in patent US6362167B1, “Method of blocking free radical processes which result in mediated pathology without deleterious pro-oxidant side reactions” (Natreon Inc., priority 1999, dated 2002).
In brackets after ≈: the same amount, converted by molar mass.

Key:
PBR 322 plasmid DNA = assay: Prevention of DNA strand scission by hydroxyl radical from Cu(en)2-hydrogen peroxide; type: biochemical
Description: The DNA strand scission was investigated by a method published by T. Ozawa, et al [Biochem. Mol. Biol. Int. 31, 455-46, 1993]. The method consists of addition of hydrogen peroxide (30%, final concentration 25 mM) to a mixture of Cu(en)2 (final concentration 0.25 mM) and 0.5 mcg of PBR 322 plasmid DNA solution (Takara Co., Japan). The hydroxyl radical, generated from Cu(en)2-hydrogen peroxide reaction, caused DNA strand scission.

[1] = Polymerization of methylmethacrylate (MMA) to polymethylmethacrylate (PMMA) by Fenton's reagent; conditions: for Effect on polymerization of MMA→PMMA: low concentrations of ascorbic acid (1.0 mg in b63)
Description: Thus, the pro-oxidant effect of a low concentration of AA could be systemically quite dangerous due to distinct involvement of OH radicals. […] N2 was passed through the mixture for 30 min. followed by H2O2. The onset of polymerization (the induction period in minutes) was noted. Polymerization was completed in about 24 hours at 35±2° C. The resulting precipitate was collected, washed and dried at 50° C. until a constant weight was obtained (See Table 3).

[2] = DPPH radical scavenging (antioxidant activity); type: biochemical; conditions: DPPH 100 μM in absolute ethyl alcohol, 20 minutes, absorbance 570 nm; mean ± SEM (n = 10 to 12)
Description: After 20 minutes, the absorbance (optical density) of the mixture was measured at a wavelength of 570 nm and compared to that of the control sample. The degree of scavenging of the DPPH radical by each test sample was calculated by comparing the absorbance of the test sample and the diluent control reaction mixture. The results are shown in Table 2 below, a lower IC value indicating a better antioxidant effect on the DPPH radical.

[3] = DNA + OH radical + test material
[4] = 3 g sample added (so in the source)

SMILES: O=C1O[C@H]([C@@H](O)CO)C(O)=C1O [AA, Ascorbic acid]
- Linear form of DNA (LIN, Produced after breakage) (PBR 322 plasmid DNA; [3]): 60%
- Open circular form Of DNA (OC) (PBR 322 plasmid DNA; [3]): 40%
- Effect on DNA strand-scission by hydroxyl radicals compared to the control value (PBR 322 plasmid DNA; physiological pH, Cu(en)2 and hydrogen peroxide): accelerated
- % Conversion of MMA → PMMA ([1]; 1 mg sample added): 78.7 ↑ %
- Induction Time ([1]; 1 mg sample added): 0 min
- Yield of PMMA ([1]; 1 mg sample added): 772 mg
- % Conversion of MMA → PMMA ([1]; 2 mg sample added): 69.8 ↑ %
- Induction Time ([1]; 2 mg sample added): 0 min
- Yield of PMMA ([1]; 2 mg sample added): 692 mg
- % Conversion of MMA → PMMA ([1]; 4 mg sample added): 44.0%
- Induction Time ([1]; 4 mg sample added): 0 min
- Yield of PMMA ([1]; 4 mg sample added): 432 mg
- % Conversion of MMA → PMMA ([1]; 5 mg sample added): 23.1%
- Induction Time ([1]; 5 mg sample added): 0 min
- Yield of PMMA ([1]; 5 mg sample added): 227 mg
- % Conversion of MMA → PMMA ([1]; 10 mg sample added): 8.4%
- Induction Time ([1]; 10 mg sample added): 0 min
- Yield of PMMA ([1]; 10 mg sample added): 83 mg
- % Conversion of MMA → PMMA [1, 4]: 68.2 ↑ %
- Induction Time [1, 4]: 0 min
- Yield of PMMA [1, 4]: 670 mg
- Effect on polymerization of MMA→PMMA [1]: significant augmentation of polymerization
- Effect on polymerization of MMA→PMMA ([1]; listed as ascorbic acid): augmented polymerization
- IC50 (DPPH radical scavenging) [2]: 18.41 ± 3.88 µg/mL (≈ 105 µM)

SMILES: CC(=O)Oc1c(C)c(C)c2c(c1C)CCC(C)(CCC[C@H](C)CCC[C@H](C)CCCC(C)C)O2 (stereo partly drawn) [α-Tocopheryl acetate (TA), α-Tocopheryl acetate]
- IC50 (DPPH radical scavenging) [2]: 50.55 ± 7.03 µg/mL
